System: Dentine
Experiment: Bio-modification of human mid coronal dentine assessed as fold change in complex modulus at 0.2% w/v incubated for 1 hrs by dynamic mechanical analysis
Format: functional

Row | SMILES | fold change (FC)
1 | Oc1cc(O)c(C[C@@H]2Oc3c4c(cc(O)c3[C@H]2c2ccc(O)c(O)c2)O[C@H](c2ccc(O)c(O)c2)[C@@H](O)C4)c(O)c1 | 4.2
2 | Oc1cc(O)c(C[C@H](O)[C@H](c2ccc(O)c(O)c2)c2c(O)cc(O)c3c2O[C@@H](c2ccc(O)c(O)c2)[C@@H](O)C3)c(O)c1 | 3.3
3 | Oc1cc(O)c2c(c1)O[C@H]([C@H](c1ccc(O)c(O)c1)c1c(O)cc(O)c3c1O[C@H](c1ccc(O)c(O)c1)[C@@H](O)C3)C2 | 5.2
4 | Oc1cc(O)c(C[C@H](O)[C@H](c2ccc(O)c(O)c2)c2c(O)cc(O)c3c2O[C@H](c2ccc(O)c(O)c2)[C@@H](O)C3)c(O)c1 | 3.3
5 | Oc1cc(O)c(C[C@H](O)[C@H](c2ccc(O)c(O)c2)c2c(O)cc(O)c3c2O[C@@H](c2ccc(O)c(O)c2)[C@H](O)C3)c(O)c1 | 3.3
